Laboratory results: patent publication US20240199692A1 (priority 2019, published 2024)
Where two headings read alike, the source gives them in different places. *1 amine or outer side, *2 acyl side, *3 side chain or, on linkers, in order; H or OH if unused. Where a SMILES comes first, the peptide text is derived from it. Bridges are numbered along the chain shown (N, C = ends). Side-chain parts run from the residue outwards. [ ]: non-standard residue; d: D form. The star is where a group is joined. PhSO2(4-NHCOPh(4-CONH2)) = NC(=O)c1ccc(C(=O)Nc2ccc(S(=O)(=O)*)cc2)cc1; Phenylsulfonyl(4-anisamido) = COc1ccc(C(=O)Nc2ccc(S(=O)(=O)*)cc2)cc1; Benzenesulfonyl(4-OPh) = O=S(=O)(c1ccc(Oc2ccccc2)cc1)*; X1 = O=C(Nc1ccc(S(=O)(=O)*)cc1)c1ccc(OC(F)(F)F)cc1; d(γGlu) = O=C(O)[C@@H](CCC(=O)[*:2])N[*:1]; d(βAsp) = O=C(O)[C@@H](CC(=O)[*:2])N[*:1]; C16 diacid = O=C(O)CCCCCCCCCCCCCCC(=O)*; Pro(4S-NH2) = N[C@@H]1CN[C@H](C(=O)O)C1; NMeI = CC[C@H](C)[C@H](NC)C(=O)O; NMeE = CN[C@@H](CCC(=O)O)C(=O)O; NMeD = CN[C@@H](CC(=O)O)C(=O)O; β3hP = O=C(O)C[C@@H]1CCCN1; Dab = NCC[C@H](N)C(=O)O; Dap = NC[C@H](N)C(=O)O; AEEA = NCCOCCOCC(=O)O; GABA = NCCCC(=O)O; βAla = NCCC(=O)O

What was measured:
MMP2 [1] = target: T1, MMP2 (Homo sapiens, UniProt P08253); test: Inhibitory effects on human MMP2 (Method 1), enzyme assay with MOCAc-Pro-Leu-Gly-Leu-A2pr(Dnp)-Ala-Arg-NH2 substrate, 96-well; format: biochemical; conditions: read-out: Human MMP2, IC50
T1 sequence (P08253 110-660): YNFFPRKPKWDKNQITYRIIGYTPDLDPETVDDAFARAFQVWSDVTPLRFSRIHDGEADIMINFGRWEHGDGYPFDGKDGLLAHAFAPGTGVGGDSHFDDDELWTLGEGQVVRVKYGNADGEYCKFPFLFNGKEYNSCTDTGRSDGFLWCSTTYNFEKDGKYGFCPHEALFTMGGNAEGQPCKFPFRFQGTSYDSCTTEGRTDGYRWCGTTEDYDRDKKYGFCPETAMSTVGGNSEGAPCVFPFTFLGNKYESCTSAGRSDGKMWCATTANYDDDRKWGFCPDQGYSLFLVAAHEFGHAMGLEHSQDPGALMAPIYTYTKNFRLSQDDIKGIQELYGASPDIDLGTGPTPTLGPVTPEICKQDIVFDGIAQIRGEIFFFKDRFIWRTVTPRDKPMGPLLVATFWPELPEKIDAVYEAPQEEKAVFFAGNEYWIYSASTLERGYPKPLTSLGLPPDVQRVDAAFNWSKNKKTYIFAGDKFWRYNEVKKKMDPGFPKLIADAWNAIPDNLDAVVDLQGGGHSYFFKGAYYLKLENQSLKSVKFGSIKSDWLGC
Procedure: In a reaction solution [50 mmol/L Tris-HCl (pH 7.5), 150 mmol/L NaCl, 10 mmol/L CaCl2, 0.05% Brij L23], 100 μg/mL human recombinant MMP2 enzyme and 1 mmol/L 4-Aminophenylmercuric acetate were mixed together, and reacted at 37° C. for 60 minutes. The human MMP2 activated through the reaction was poured into a 96-well microplate to reach a final concentration of 0.7 or 7 ng/mL.

human MMP12 = human MMP12 (Homo sapiens, UniProt P39900); test: Inhibitory effects on human MMP12, enzyme assay; format: biochemical
Chain of human MMP12 (P39900 106-470): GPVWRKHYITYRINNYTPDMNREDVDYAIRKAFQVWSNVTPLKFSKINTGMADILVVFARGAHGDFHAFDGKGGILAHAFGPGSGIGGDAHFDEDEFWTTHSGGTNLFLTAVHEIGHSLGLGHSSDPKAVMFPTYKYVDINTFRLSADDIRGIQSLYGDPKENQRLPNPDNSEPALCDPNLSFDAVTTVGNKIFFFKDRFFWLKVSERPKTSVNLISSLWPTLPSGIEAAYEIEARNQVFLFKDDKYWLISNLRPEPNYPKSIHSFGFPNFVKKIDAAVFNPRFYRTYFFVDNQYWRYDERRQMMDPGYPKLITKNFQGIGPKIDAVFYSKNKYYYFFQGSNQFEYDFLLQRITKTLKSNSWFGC

human MMP13 = human MMP13 (Homo sapiens, UniProt P45452); test: Inhibitory effects on human MMP13, enzyme assay; format: biochemical; conditions: Test Example 8
Procedure: The human MMP13 activated through the reaction was poured into a 96-well microplate to reach a final concentration of 5 ng/mL. […] Then, MOCAc-[…] was added to reach a final concentration of 6 μmol/L, and enzymatic reaction was initiated.

MMP2 [2] = target: T1, MMP2; test: Inhibitory effects on human MMP2 (Method 2), enzyme assay with MOCAc-Pro-Leu-Gly-Leu-A2pr(Dnp)-Ala-Arg-NH2 substrate, 384-well; format: biochemical; conditions: Test Example No. 1-2 (Method 2, 384-well microplate)
MMP2 [3] = target: T1, MMP2; conditions: reported, see NPTL 19; cited from earlier work
[4] = Test Example No. 1-1 (Method 1, 96-well microplate)
[5] = Test Example 7, read-out: Human MMP12, IC50
[6] = Test Example No. 1-1 (Method 1, 96-well)

IC50 (human MMP12; [5]) [nM]	IC50 (MMP2 [1]; [6]) [nM]	Compound	IC50 (MMP2 [1]; [4]) [nM]	IC50 (human MMP13) [nM]	also measured
–	–	CC(C)C[C@H](NC(=O)[C@@H]1C[C@H](N)CN1C(=O)CC[C@@H](NS(=O)(=O)c1ccc(NC(=O)c2ccc(C(N)=O)cc2)cc1)C(=O)O)C(=O)N(C)[C@@H](CCC(=O)O)C(=O)NCCCCC(N)=O [Compound 1, N-[4-(4-carbamoylbenzamido)benzene-1-sulfonyl]-D-γ-glutamyl-(4S)-4-amino-L-prolyl-L-1 eucyl-N-(5-amino-5-oxopentyl)-N^2-methyl-L-α-glutamine]	0.22	240	IC50 (human MMP12): 253 nM
–	–	CC(C)C[C@H](NC(=O)[C@@H]1C[C@H](N)CN1C(=O)CC[C@@H](NS(=O)(=O)c1ccc(NC(=O)c2ccc(C(N)=O)cc2)cc1)C(=O)O)C(=O)N(C)[C@@H](CCC(=O)O)C(=O)N[C@H](CCCNC(=N)N)C(N)=O [Compound 29] ({PhSO2(4-NHCOPh(4-CONH2))-d(γGlu)}-[Pro(4S-NH2)]L[NMeE][dR]-NH2; C-terminus assumed)	–	–	IC50 (MMP2 [2]): 0.14 nM
101	–	COc1ccc(C(=O)Nc2ccc(S(=O)(=O)N[C@H](CC(=O)N[C@@H](CN)C(=O)N[C@@H](CC(C)C)C(=O)N(C)[C@@H](CCC(=O)O)C(=O)N3CCC[C@H]3CC(N)=O)C(=O)O)cc2)cc1 [Compound 691] ({Phenylsulfonyl(4-anisamido)-d(βAsp)}-[Dap]L[NMeE][β3hP]-NH2; N-terminus assumed)	0.065	142	–
169	–	CC[C@H](C)[C@@H](C(=O)N1CCC[C@H]1CC(N)=O)N(C)C(=O)[C@H](CC(C)C)NC(=O)[C@H](CCN)NC(=O)CC[C@@H](NS(=O)(=O)c1ccc(NC(=O)c2ccc(OC(F)(F)F)cc2)cc1)C(=O)O [Compound 701] ({X1-d(γGlu)}-[Dab]L[NMeI][β3hP]-NH2; N-terminus assumed)	0.27	116	–
–	1.1	CC[C@H](C)[C@@H](C(=O)N1CCC[C@H]1CC(N)=O)N(C)C(=O)[C@@H]1CCCCNC(=O)CCNC(=O)CC[C@H](NC(=O)CCCNS(=O)(=O)c2ccc(Oc3ccccc3)cc2)C(=O)N[C@@H](CC(=O)O)C(=O)N[C@@H](CCN)C(=O)N1 [Compound 894] ({Benzenesulfonyl(4-OPh)-GABA}-ED[Dab]K[NMeI][β3hP]-NH2; linker 1-4 via βAla (inferred); N-terminus assumed)	–	–	–
–	1.3	CN(C(=O)[C@@H]1CCCCNC(=O)CCNC(=O)CC[C@H](NC(=O)CCCNS(=O)(=O)c2ccc(Oc3ccccc3)cc2)C(=O)N[C@@H](CC(=O)O)C(=O)N[C@@H](CCN)C(=O)N1)[C@@H](CC(=O)O)C(=O)N1CCC[C@H]1CC(N)=O [Compound 895] ({Benzenesulfonyl(4-OPh)-GABA}-ED[Dab]K[NMeD][β3hP]-NH2; linker 1-4 via βAla (inferred); N-terminus assumed)	–	–	–
–	0.127	CC[C@H](C)[C@@H](C(=O)N1CCC[C@H]1CC(N)=O)N(C)C(=O)[C@H](CC(C)C)NC(=O)[C@H](C)NC(=O)[C@H](CC(=O)O)NC(=O)[C@H](CCCCNC(=O)COCCOCCNC(=O)COCCOCCNC(=O)CC[C@@H](NC(=O)CCCCCCCCCCCCCCC(=O)O)C(=O)O)NC(=O)CCCNS(=O)(=O)c1ccc(Oc2ccccc2)cc1 [Compound 903, (2S,5S,32R)-2-{[(2S)-1-({(2S)-1-[{(2S,3S)-1-[(2S)-2-(2-amino-2-oxoethyl)pyrrolidin-1-yl]-3-methyl-1-oxopentan-2-yl}(methyl)amino]-4-methyl-1-oxopentan-2-yl}amino)-1-oxopropan-2-yl]carbamoyl}-4,11,20,29,34-pentaoxo-5-{4-[(4-phenoxybenzene-1-sulfonyl)amino]butanamido}-13,16,22,25-tetraoxa-3,10,19,28,33-pentaazaoctatetracontane-1,32,48-tricarboxylic acid] ({Benzenesulfonyl(4-OPh)-GABA}-K([AEEA-AEEA-d(γGlu)-C16 diacid])DAL[NMeI][β3hP]-NH2)	–	–	–
–	–	IIe-Ser-Tyr-Gly-Asn-Asp-Ala-Leu-Met-Pro [APP-IP]	–	–	MMP2-inhibitory effect (MMP2 [3]): selective MMP2-inhibitory effect

Compound	IC50 (human MMP12; [5]) [nM]	IC50 (MMP2 [1]; [6]) [nM]	IC50 (MMP2 [1]; [4]) [nM]	IC50 (human MMP13) [nM]	also measured
CC[C@H](C)[C@@H](C(=O)NCCCCC(N)=O)N(C)C(=O)[C@H](CC(C)C)NC(=O)[C@@H]1C[C@H](N)CN1C(=O)CC[C@@H](NS(=O)(=O)c1ccc(NC(=O)c2ccc(C(N)=O)cc2)cc1)C(=O)O [Compound 9]	160	–	0.29	250	–
